By DC50 is commonly meant the midpoint of the concentration-degradation curve.

The target in this test is T1, STAT6 (Homo sapiens, UniProt P42226).
T1 construct: endogenous in cells; host or cells: MOLM-16, KU-812, SKNO1, MB231, L1236
T1 sequence (P42226 1-847): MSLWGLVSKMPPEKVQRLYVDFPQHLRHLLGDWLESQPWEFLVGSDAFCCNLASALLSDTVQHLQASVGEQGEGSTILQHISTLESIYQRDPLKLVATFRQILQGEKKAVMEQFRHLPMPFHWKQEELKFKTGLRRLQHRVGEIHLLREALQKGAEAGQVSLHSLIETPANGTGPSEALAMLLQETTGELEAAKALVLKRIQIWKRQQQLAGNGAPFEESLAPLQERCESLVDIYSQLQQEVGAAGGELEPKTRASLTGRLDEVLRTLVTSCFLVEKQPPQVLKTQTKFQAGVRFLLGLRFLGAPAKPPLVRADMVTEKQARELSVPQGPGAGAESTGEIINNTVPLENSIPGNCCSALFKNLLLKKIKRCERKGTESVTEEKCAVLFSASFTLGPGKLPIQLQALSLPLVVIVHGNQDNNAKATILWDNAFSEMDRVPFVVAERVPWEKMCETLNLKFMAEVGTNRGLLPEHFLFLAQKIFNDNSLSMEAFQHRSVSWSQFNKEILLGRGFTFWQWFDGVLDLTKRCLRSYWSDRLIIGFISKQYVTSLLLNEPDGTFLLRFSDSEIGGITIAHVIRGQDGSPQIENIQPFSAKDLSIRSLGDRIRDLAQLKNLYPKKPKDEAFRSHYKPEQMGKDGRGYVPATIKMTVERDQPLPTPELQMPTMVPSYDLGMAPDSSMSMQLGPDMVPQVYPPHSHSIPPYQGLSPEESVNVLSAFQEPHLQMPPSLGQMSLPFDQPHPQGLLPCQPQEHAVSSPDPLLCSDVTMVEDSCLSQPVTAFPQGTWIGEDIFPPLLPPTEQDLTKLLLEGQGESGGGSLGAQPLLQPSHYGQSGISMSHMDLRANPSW
The test can be described thus: Immunoblotting (Western blot) analysis of STAT6 degradation efficiency of degraders in treated cells. The format is cell-based. The gist of the method: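 Protein levels of STAT5 and STAT6 were assessed in cells cultured at 37 °C in 10% FBS medium after compound exposure, by quantitative fluorescent Western blotting normalised to equal loading and referenced to GAPDH.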

[1] abbreviates: L1236 cells, read-out: DC50 S6 L1236.
The mark [2] stands for this setting: MOLM-16 cells, class symbols, read-out: DC50 S6 MOLM-16.

Like-named read-outs stand apart in the source and are kept apart here.

With `Cc1ncsc1-c1ccc(CNC(=O)[C@@H]2C[C@@H](O)CN2C(=O)[C@@H](NC(=O)CCCCNC(=O)CO[C@@H]2C[C@@H](C(=O)N(C)c3ccc(Br)cc3)N(C(=O)[C@@H](NC(=O)c3cc4cc(C(F)(F)P(=O)(O)O)ccc4s3)C(C)(C)C)C2)C(C)(C)C)cc1` [Compound 416, ((2-(((S)-1-((2S,4R)-2-((4-bromophenyl)(methyl)carbamoyl)-4-(2-((5-(((S)-1-((2S,4R)-4-hydroxy-2-((4-(4-methylthiazol-5-yl)benzyl)carbamoyl)pyrrolidin-1-yl)-3,3-dimethyl-1-oxobutan-2-yl)amino)-5-oxopentyl)amino)-2-oxoethoxy)pyrrolidin-1-yl)-3,3-dimethyl-1-oxobutan-2-yl)carbamoyl)benzo[b]thiophen-5-yl)difluoromethyl)phosphonic acid], the DC50 reads like this: under setting [1], more than 10 µM; (MB231 cells, read-out: DC50 S6 MB231) more than 10 µM.

For the compound `Cc1ncsc1-c1ccc([C@H](C)NC(=O)[C@@H]2C[C@@H](O)CN2C(=O)[C@@H](NC(=O)CCCNC(=O)CO[C@H]2C[C@@H](C(=O)N3CCO[C@H](c4ccccc4)C3)N(C(=O)[C@@H](NC(=O)c3cc4cc(C(F)(F)P(=O)(O)O)ccc4s3)C(C)(C)C)C2)C(C)(C)C)cc1` [Compound 427, (difluoro(2-(((S)-1-((2S,4S)-4-(2-((4-(((S)-1-((2S,4R)-4-hydroxy-2-(((S)-1-(4-(4-methylthiazol-5-yl)phenyl)ethyl)carbamoyl)pyrrolidin-1-yl)-3,3-dimethyl-1-oxobutan-2-yl)amino)-4-oxobutyl)amino)-2-oxoethoxy)-2-((R)-2-phenylmorpholine-4-carbonyl)pyrrolidin-1-yl)-3,3-dimethyl-1-oxobutan-2-yl)carbamoyl)benzo[b]thiophen-5-yl)methyl)phosphonic acid], the DC50 by setting is: under setting [1], more than 10 µM; under setting [2], more than 10 µM.

Regarding `CC(C)(C)[C@H](NC(=O)c1cc2cc(C(F)(F)P(=O)(O)O)ccc2s1)C(=O)N1CCN(C(=O)CC(=O)NCCCCCCCCCC#Cc2ccc3c(c2)C(=O)N(C2CCC(=O)NC2=O)C3=O)C[C@H]1C(=O)N1CCO[C@H](c2ccccc2)C1` (stereo partly drawn) [Compound 520, ((2-(((2S)-1-((2S)-4-(3-((11-(2-(2,6-dioxopiperidin-3-yl)-1,3-dioxoisoindolin-5-yl)undec-10-yn-1-yl)amino)-3-oxopropanoyl)-2-((R)-2-phenylmorpholine-4-carbonyl)piperazin-1-yl)-3,3-dimethyl-1-oxobutan-2-yl)carbamoyl)benzo[b]thiophen-5-yl)difluoromethyl)phosphonic acid], the DC50 under setting [2] was more than 10 µM.

In the case of `CC(C)(C)[C@H](NC(=O)c1cc2cc(C(F)(F)P(=O)(O)O)ccc2s1)C(=O)N1CCN(C(=O)CC(=O)NCC#Cc2ccc3c(c2)C(=O)N(C2CCC(=O)NC2=O)C3=O)C[C@H]1C(=O)N1CCC[C@H](c2ccccc2)C1` (stereo partly drawn) [Compound 522, ((2-(((2S)-1-((2S)-4-(3-((3-(2-(2,6-dioxopiperidin-3-yl)-1,3-dioxoisoindolin-5-yl)prop-2-yn-1-yl)amino)-3-oxopropanoyl)-2-((R)-3-phenylpiperidine-1-carbonyl)piperazin-1-yl)-3,3-dimethyl-1-oxobutan-2-yl)carbamoyl)benzo[b]thiophen-5-yl)difluoromethyl)phosphonic acid], the DC50 under setting [2] was more than 10 µM.

Regarding `CC(C)(C)[C@H](NC(=O)c1cc2cc(C(F)(F)P(=O)(O)O)ccc2s1)C(=O)N1C[C@@H](OCCCCCCC#Cc2cccc3c2CN(C2CCC(=O)NC2=O)C3=O)C[C@H]1C(=O)N1CCOC(c2ccc(F)c(Cl)c2)C1` (stereo partly drawn) [Compound 608, ((2-(((2S)-1-((2S,4S)-2-(2-(3-chloro-4-fluorophenyl)morpholine-4-carbonyl)-4-((8-(2-(2,6-dioxopiperidin-3-yl)-1-oxoisoindolin-4-yl)oct-7-yn-1-yl)oxy)pyrrolidin-1-yl)-3,3-dimethyl-1-oxobutan-2-yl)carbamoyl)benzo[b]thiophen-5-yl)difluoromethyl)phosphonic acid], under “MOLM-16 cells, numeric bound, read-out: DC50 S6 MOLM-16”, the DC50 is more than 0.3 µM.

On to `CC(C)(C)[C@H](NC(=O)c1cc2cc(C(F)(F)P(=O)(O)O)ccc2s1)C(=O)N1C[C@@H](OCC(=O)NCCCCC#Cc2cccc3c2C(=O)N(C2CCC(=O)NC2=O)C3=O)C[C@H]1C(=O)N1CCO[C@H](c2ccccc2)C1` (stereo partly drawn) [Compound 485, ((2-(((2S)-1-((2S,4S)-4-(2-((6-(2-(2,6-dioxopiperidin-3-yl)-1,3-dioxoisoindolin-4-yl)hex-5-yn-1-yl)amino)-2-oxoethoxy)-2-((R)-2-phenylmorpholine-4-carbonyl)pyrrolidin-1-yl)-3,3-dimethyl-1-oxobutan-2-yl)carbamoyl)benzo[b]thiophen-5-yl)difluoromethyl)phosphonic acid], for which the DC50 under setting [2] was more than 10 µM.

As for `Cc1ncsc1-c1ccc([C@H](CC(=O)NCCCCCCCC(=O)N[C@H]2C[C@@H](C(=O)N3CCO[C@H](c4ccccc4)C3)N(C(=O)[C@@H](NC(=O)c3cc4cc(C(F)(F)P(=O)(O)O)ccc4s3)C(C)(C)C)C2)NC(=O)[C@@H]2C[C@@H](O)CN2C(=O)[C@@H](NC(=O)C2(F)CC2)C(C)(C)C)cc1` [Compound 570, (difluoro(2-(((S)-1-((2S,4S)-4-(8-((S)-3-((2S,4R)-1-((S)-2-(1-fluorocyclopropane-1-carboxamido)-3,3-dimethylbutanoyl)-4-hydroxypyrrolidine-2-carboxamido)-3-(4-(4-methylthiazol-5-yl)phenyl)propanamido)octanamido)-2-((R)-2-phenylmorpholine-4-carbonyl)pyrrolidin-1-yl)-3,3-dimethyl-1-oxobutan-2-yl)carbamoyl)benzo[b]thiophen-5-yl)methyl)phosphonic acid], the DC50 under setting [2] was more than 10 µM.

For the compound `Cc1ncsc1-c1ccc([C@H](C)NC(=O)[C@@H]2C[C@@H](O)CN2C(=O)[C@@H](NC(=O)CCCNC(=O)COc2ccc3c(c2)CN(C(=O)[C@@H](NC(=O)c2cc4cc(C(F)(F)P(=O)(O)O)ccc4s2)C(C)(C)C)[C@H](C(=O)N2CCO[C@H](c4ccccc4)C2)C3)C(C)(C)C)cc1` [Compound 463, (difluoro(2-(((S)-1-((S)-7-(2-((4-(((S)-1-((2S,4R)-4-hydroxy-2-(((S)-1-(4-(4-methylthiazol-5-yl)phenyl)ethyl)carbamoyl)pyrrolidin-1-yl)-3,3-dimethyl-1-oxobutan-2-yl)amino)-4-oxobutyl)amino)-2-oxoethoxy)-3-((R)-2-phenylmorpholine-4-carbonyl)-3,4-dihydroisoquinolin-2(1H)-yl)-3,3-dimethyl-1-oxobutan-2-yl)carbamoyl)benzo[b]thiophen-5-yl)methyl)phosphonic acid], the 50% degradation concentration (DC50) runs as follows: under setting [1], more than 10 µM; under setting [2], more than 10 µM.

Turning to `CC(C)(C)[C@H](NC(=O)c1cc2cc(C(F)(F)P(=O)(O)O)ccc2s1)C(=O)N1C[C@@H](OCC(=O)NCCCCCCCCC#Cc2cccc3c2C(=O)N(C2CCC(=O)NC2=O)C3=O)C[C@H]1C(=O)N1CCO[C@H](c2ccccc2)C1` (stereo partly drawn) [Compound 489, ((2-(((2S)-1-((2S,4S)-4-(2-((10-(2-(2,6-dioxopiperidin-3-yl)-1,3-dioxoisoindolin-4-yl)dec-9-yn-1-yl)amino)-2-oxoethoxy)-2-((R)-2-phenylmorpholine-4-carbonyl)pyrrolidin-1-yl)-3,3-dimethyl-1-oxobutan-2-yl)carbamoyl)benzo[b]thiophen-5-yl)difluoromethyl)phosphonic acid], the DC50 under setting [2] is more than 10 µM.

As for `Cc1ncsc1-c1ccc([C@H](C)NC(=O)[C@@H]2C[C@@H](O)CN2C(=O)[C@@H](NC(=O)CCCCCCCCCNC(=O)COc2ccc3c(c2)CN(C(=O)[C@@H](NC(=O)c2cc4cc(C(F)(F)P(=O)(O)O)ccc4s2)C(C)(C)C)[C@H](C(=O)N2CCC[C@H](c4ccccc4)C2)C3)C(C)(C)C)cc1` [Compound 478, (difluoro(2-(((S)-1-((S)-7-(2-((10-(((S)-1-((2S,4R)-4-hydroxy-2-(((S)-1-(4-(4-methylthiazol-5-yl)phenyl)ethyl)carbamoyl)pyrrolidin-1-yl)-3,3-dimethyl-1-oxobutan-2-yl)amino)-10-oxodecyl)amino)-2-oxoethoxy)-3-((R)-3-phenylpiperidine-1-carbonyl)-3,4-dihydroisoquinolin-2(1H)-yl)-3,3-dimethyl-1-oxobutan-2-yl)carbamoyl)benzo[b]thiophen-5-yl)methyl)phosphonic acid], the DC50 under setting [2] was more than 10 µM.
